Results reported in ChEMBL document CHEMBL1201861, “Genomics of Drug Sensitity in Cancer screening data, Wellcome Trust Sanger Institute”.

Columns and labels:
Test in all cases: cells
Conditions in all cases: Homo sapiens
[1] = tested on: JVM-3; assay type: functional, cell-based;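 further: growth inhibition of human JVM-3 cells, read out with a cell viability assay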
Description: SANGER: Inhibition of human JVM-3 cell growth in a cell viability assay.

[2] = tested on: GI-1; assay type: functional, cell-based;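 further: growth inhibition of human GI-1 cells, measured with a cell viability readout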
Description: SANGER: Inhibition of human GI-1 cell growth in a cell viability assay.

[3] = tested on: ONS-76; assay type: functional, cell-based;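 further: growth inhibition of human ONS-76 cells, read out with a cell viability assay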
Description: SANGER: Inhibition of human ONS-76 cell growth in a cell viability assay.

[4] = tested on: BB30-HNC; assay type: functional, cell-based;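 further: growth inhibition of the cultured cell line, read out by a cell viability assay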
Description: SANGER: Inhibition of human BB30-HNC cell growth in a cell viability assay.

[5] = tested on: Becker; assay type: functional, cell-based;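 further: growth inhibition of Becker cells, read out with a cell viability assay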
Description: SANGER: Inhibition of human Becker cell growth in a cell viability assay.

[6] = tested on: MV4-11; assay type: functional, cell-based, MV-4-11;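 further: cell viability readout measuring growth inhibition of human MV-4-11 cells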
Description: SANGER: Inhibition of human MV-4-11 cell growth in a cell viability assay.

[7] = tested on: MSTO-211H; assay type: functional, cell-based
Description: SANGER: Inhibition of human MSTO-211H cell growth in a cell viability assay.

[8] = tested on: SW684; assay type: functional, cell-based;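 further: growth inhibition of human SW684 cells, measured by a cell viability assay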
Description: SANGER: Inhibition of human SW684 cell growth in a cell viability assay.

[9] = tested on: MC116; assay type: functional, cell-based;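 further: growth inhibition of MC116 cells, read out with a cell viability assay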
Description: SANGER: Inhibition of human MC116 cell growth in a cell viability assay.

[10] = tested on: SK-MEL-1; assay type: functional, cell-based;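 further: growth inhibition of human SK-MEL-1 cells, read out by a cell viability assay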
Description: SANGER: Inhibition of human SK-MEL-1 cell growth in a cell viability assay.

[11] = tested on: J-RT3-T3-5; assay type: functional, cell-based;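 further: cell viability assay measuring growth inhibition of human J-RT3-T3-5 cells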
Description: SANGER: Inhibition of human J-RT3-T3-5 cell growth in a cell viability assay.

[12] = tested on: BB65-RCC; assay type: functional, cell-based;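 further: growth inhibition of the cell line, measured with a cell viability assay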
Description: SANGER: Inhibition of human BB65-RCC cell growth in a cell viability assay.

[13] = tested on: LU-139; assay type: functional, cell-based
Description: SANGER: Inhibition of human LU-139 cell growth in a cell viability assay.

[14] = tested on: ES1; assay type: functional, cell-based;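 further: growth inhibition of ES1 cells, read out with a cell viability assay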
Description: SANGER: Inhibition of human ES1 cell growth in a cell viability assay.

[15] = tested on: MLMA; assay type: functional, cell-based;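 further: growth inhibition of MLMA cells (human), determined through a cell viability readout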
Description: SANGER: Inhibition of human MLMA cell growth in a cell viability assay.

[16] = tested on: NB69; assay type: functional, cell-based;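 further: growth inhibition of NB69 cells, determined by a cell viability assay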
Description: SANGER: Inhibition of human NB69 cell growth in a cell viability assay.

[17] = tested on: DMS-114; assay type: functional, cell-based
[18] = tested on: LS-513; assay type: functional, cell-based
Description: SANGER: Inhibition of human LS-513 cell growth in a cell viability assay.

[19] = tested on: MOLT-4; assay type: functional, cell-based;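 further: growth inhibition of MOLT-4 cells, determined with a cell viability readout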
Description: SANGER: Inhibition of human MOLT-4 cell growth in a cell viability assay.

[20] = tested on: U-266; assay type: functional, cell-based
Description: SANGER: Inhibition of human U-266 cell growth in a cell viability assay.

[21] = tested on: Ramos-2G6-4C10; assay type: functional, cell-based;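 further: growth inhibition of the cell line, measured by a cell viability read-out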
Description: SANGER: Inhibition of human Ramos-2G6-4C10 cell growth in a cell viability assay.

[22] = tested on: NCI-H510A; assay type: functional, cell-based;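 further: growth inhibition of NCI-H510A cells, read out with a cell viability assay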
Description: SANGER: Inhibition of human NCI-H510A cell growth in a cell viability assay.

[23] = tested on: D283 Med; assay type: functional, cell-based
Description: SANGER: Inhibition of human D-283MED cell growth in a cell viability assay.

[24] = tested on: DMS-79; assay type: functional, cell-based;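 further: growth inhibition measured with a cell viability assay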
Description: SANGER: Inhibition of human DMS-79 cell growth in a cell viability assay.

[25] = tested on: GB-1; assay type: functional, cell-based;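 further: growth of GB-1 cells judged by a viability assay, IC50 marks the concentration inhibiting growth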
Description: SANGER: Inhibition of human GB-1 cell growth in a cell viability assay.

[26] = tested on: MHH-PREB-1; assay type: functional, cell-based;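 further: cell viability assay measuring inhibition of proliferation of human MHH-PREB-1 cells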
Description: SANGER: Inhibition of human MHH-PREB-1 cell growth in a cell viability assay.

[27] = tested on: ES6; assay type: functional, cell-based;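 further: growth inhibition of human ES6 cells, read out with a cell viability assay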
Description: SANGER: Inhibition of human ES6 cell growth in a cell viability assay.

[28] = tested on: CTB-1; assay type: functional, cell-based
Description: SANGER: Inhibition of human CTB-1 cell growth in a cell viability assay.

[29] = tested on: KURAMOCHI; assay type: functional, cell-based;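 further: growth inhibition of KURAMOCHI cells, read out with a cell viability assay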
Description: SANGER: Inhibition of human KURAMOCHI cell growth in a cell viability assay.

[30] = tested on: DU-4475; assay type: functional, cell-based
Description: SANGER: Inhibition of human DU-4475 cell growth in a cell viability assay.

[31] = tested on: KU812 cell line; assay type: functional, cell-based;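 further: growth inhibition of KU812 cells, read out with a cell viability assay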
Description: SANGER: Inhibition of human KU812 cell growth in a cell viability assay.

[32] = tested on: ATN-1; assay type: functional, cell-based;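 further: growth inhibition of human ATN-1 cells, read out with a cell viability assay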
Description: SANGER: Inhibition of human ATN-1 cell growth in a cell viability assay.

[33] = tested on: HCC2218; assay type: functional, cell-based;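 further: cell viability assay read-out, with IC50 given as the concentration that inhibits growth of the cell line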
Description: SANGER: Inhibition of human HCC2218 cell growth in a cell viability assay.

[34] = tested on: CP66-MEL; assay type: functional, cell-based;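 further: growth inhibition of CP66-MEL cells determined in a cell viability assay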
Description: SANGER: Inhibition of human CP66-MEL cell growth in a cell viability assay.

[35] = tested on: EC-GI-10; assay type: functional, cell-based
Description: SANGER: Inhibition of human EC-GI-10 cell growth in a cell viability assay.

[36] = tested on: KG-1; assay type: functional, cell-based;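 further: growth inhibition of KG-1 cells, read out by a cell viability assay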
Description: SANGER: Inhibition of human KG-1 cell growth in a cell viability assay.

[37] = tested on: RPMI-8226; assay type: functional, cell-based
Description: SANGER: Inhibition of human RPMI-8226 cell growth in a cell viability assay.

[38] = tested on: KP-N-YS; assay type: functional, cell-based;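 further: cell viability assay measuring inhibition of cell line growth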
Description: SANGER: Inhibition of human KP-N-YS cell growth in a cell viability assay.

[39] = tested on: SNU1; assay type: functional, cell-based;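 further: growth inhibition of human NCI-SNU-1 cells, measured with a cell viability assay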
Description: SANGER: Inhibition of human NCI-SNU-1 cell growth in a cell viability assay.

[40] = tested on: NB13; assay type: functional, cell-based;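 further: cell viability readout measuring growth inhibition of human NB13 cells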
Description: SANGER: Inhibition of human NB13 cell growth in a cell viability assay.

[41] = tested on: ALL-PO; assay type: functional, cell-based;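 further: growth inhibition of ALL-PO cells, read out by a cell viability assay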
Description: SANGER: Inhibition of human ALL-PO cell growth in a cell viability assay.

[42] = tested on: SW982; assay type: functional, cell-based;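 further: growth inhibition of SW982 cells, read out with a cell viability assay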
Description: SANGER: Inhibition of human SW982 cell growth in a cell viability assay.

[43] = tested on: SNB-75; assay type: functional, cell-based;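 further: cell viability assay measuring growth inhibition of human SNB-75 cells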
Description: SANGER: Inhibition of human SNB75 cell growth in a cell viability assay.

[44] = tested on: SK-N-FI; assay type: functional, cell-based;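 further: cell viability assay measuring growth inhibition of human SK-N-FI cells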
Description: SANGER: Inhibition of human SK-N-FI cell growth in a cell viability assay.

[45] = tested on: SF-539; assay type: functional, cell-based;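 further: Read-out is a cell viability assay, with IC50 reflecting inhibition of cell growth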
Description: SANGER: Inhibition of human SF539 cell growth in a cell viability assay.

[46] = tested on: 697; assay type: functional, cell-based
Description: SANGER: Inhibition of human 697 cell growth in a cell viability assay.

[47] = tested on: TGBC24TKB; assay type: functional, cell-based;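 further: growth inhibition of human TGBC24TKB cells, read out with a cell viability assay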
Description: SANGER: Inhibition of human TGBC24TKB cell growth in a cell viability assay.

[48] = tested on: D-502MG; assay type: functional, cell-based
Description: SANGER: Inhibition of human D-502MG cell growth in a cell viability assay.

[49] = tested on: NH-12; assay type: functional, cell-based;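 further: growth inhibition of NH-12 cells, read out with a cell viability assay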
Description: SANGER: Inhibition of human NH-12 cell growth in a cell viability assay.

[50] = tested on: CW-2; assay type: functional, cell-based;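 further: growth inhibition of CW-2 cells, read out by a cell viability assay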
Description: SANGER: Inhibition of human CW-2 cell growth in a cell viability assay.

[51] = tested on: IST-MES1; assay type: functional, cell-based;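 further: growth inhibition of IST-MES1 cells, measured with a cell viability assay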
Description: SANGER: Inhibition of human IST-MES1 cell growth in a cell viability assay.

[52] = tested on: LB771-HNC; assay type: functional, cell-based;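 further: growth inhibition of LB771-HNC human cells, read out with a cell viability assay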
Description: SANGER: Inhibition of human LB771-HNC cell growth in a cell viability assay.

[53] = tested on: OCI-AML2; assay type: functional, cell-based;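 further: growth inhibition of OCI-AML2 cells, read out with a cell viability assay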
Description: SANGER: Inhibition of human OCI-AML2 cell growth in a cell viability assay.

[54] = tested on: OMC-1; assay type: functional, cell-based;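 further: growth inhibition of the OMC-1 cell line, measured by a cell viability assay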
Description: SANGER: Inhibition of human OMC-1 cell growth in a cell viability assay.

[55] = tested on: NCI-H446; assay type: functional, cell-based;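 further: growth inhibition of NCI-H446 cells determined by a cell viability assay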
Description: SANGER: Inhibition of human NCI-H446 cell growth in a cell viability assay.

[56] = tested on: SW 954; assay type: functional, cell-based;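 further: growth inhibition of SW954 human cancer cells, read out as cell viability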
Description: SANGER: Inhibition of human SW954 cell growth in a cell viability assay.

[57] = tested on: NCI-H1770; assay type: functional, cell-based;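 further: growth inhibition of NCI-H1770 cells determined with a viability readout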
Description: SANGER: Inhibition of human NCI-H1770 cell growth in a cell viability assay.

[58] = tested on: HT; assay type: functional, cell-based
Description: SANGER: Inhibition of human HT cell growth in a cell viability assay.

[59] = tested on: LB2241-RCC; assay type: functional, cell-based;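 further: cell viability assay measuring how strongly the cultured human renal carcinoma line is prevented from growing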
Description: SANGER: Inhibition of human LB2241-RCC cell growth in a cell viability assay.

[60] = tested on: ES7; assay type: functional, cell-based;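 further: growth inhibition of cultured human ES7 cells, read out as cell viability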
Description: SANGER: Inhibition of human ES7 cell growth in a cell viability assay.

[61] = tested on: HDLM-2; assay type: functional, cell-based
Description: SANGER: Inhibition of human HDLM-2 cell growth in a cell viability assay.

[62] = tested on: LU-134-A; assay type: functional, cell-based
Description: SANGER: Inhibition of human LU-134-A cell growth in a cell viability assay.

[63] = tested on: MZ2-MEL; assay type: functional, cell-based
Description: SANGER: Inhibition of human MZ2-MEL cell growth in a cell viability assay.

[64] = tested on: ES3; assay type: functional, cell-based
Description: SANGER: Inhibition of human ES3 cell growth in a cell viability assay.

[65] = tested on: NCI-H1299; assay type: functional, cell-based
Description: SANGER: Inhibition of human NCI-H1299 cell growth in a cell viability assay.

For `CCNc1cc(N[C@H]2CC[C@@H](O)CC2)nc(Nc2ccc3c(ccn3Cc3ccccc3)c2)n1`, which IC50 [1] is on record?
Its IC50 is > 5.12 µM.

And the IC50 [2]?
The IC50 was 2.95 µM.

What about the IC50 [3] of the same molecule?
Its IC50 is > 5.12 µM.

And the IC50 [4]?
The IC50 was 4.6 µM.

And the IC50 [5]?
Its IC50 is > 5.12 µM.

And the IC50 [6]?
The IC50 was > 5.12 µM.

And the IC50 [7]?
Its IC50 is > 5.12 µM.

What about the IC50 [8] of the same molecule?
Its IC50 is > 5.12 µM.

What about the IC50 [9] of the same molecule?
The IC50 was > 5.12 µM.

And the IC50 [10]?
The IC50 was > 5.12 µM.

What about the IC50 [11] of the same molecule?
Its IC50 is > 5.12 µM.

What about the IC50 [12] of the same molecule?
Its IC50 is > 5.12 µM.

And the IC50 [13]?
Its IC50 is > 5.12 µM.

And the IC50 [14]?
The IC50 was > 5.12 µM.

And the IC50 [15]?
Its IC50 is > 5.12 µM.

And the IC50 [16]?
The IC50 was > 5.12 µM.

And the IC50 [17]?
Its IC50 is > 5.12 µM.

And the IC50 [18]?
The IC50 was > 5.12 µM.

And the IC50 [19]?
Its IC50 is > 5.12 µM.

And the IC50 [20]?
The IC50 was > 5.12 µM.

What about the IC50 [21] of the same molecule?
Its IC50 is > 5.12 µM.

What about the IC50 [22] of the same molecule?
Its IC50 is > 5.12 µM.

What about the IC50 [23] of the same molecule?
The IC50 was > 5.12 µM.

What about the IC50 [24] of the same molecule?
The IC50 was > 5.12 µM.

And the IC50 [25]?
The IC50 was > 5.12 µM.

What about the IC50 [26] of the same molecule?
Its IC50 is > 5.12 µM.

And the IC50 [27]?
Its IC50 is > 5.12 µM.

And the IC50 [28]?
The IC50 was > 5.12 µM.

What about the IC50 [29] of the same molecule?
The IC50 was > 5.12 µM.

And the IC50 [30]?
The IC50 was > 5.12 µM.

And the IC50 [31]?
Its IC50 is > 5.12 µM.

And the IC50 [32]?
Its IC50 is > 5.12 µM.

What about the IC50 [33] of the same molecule?
Its IC50 is > 5.12 µM.

What about the IC50 [34] of the same molecule?
Its IC50 is > 5.12 µM.

And the IC50 [35]?
Its IC50 is > 5.12 µM.

And the IC50 [36]?
The IC50 was > 5.12 µM.

And the IC50 [37]?
The IC50 was > 5.12 µM.

What about the IC50 [38] of the same molecule?
The IC50 was > 5.12 µM.

What about the IC50 [39] of the same molecule?
Its IC50 is > 5.12 µM.

What about the IC50 [40] of the same molecule?
The IC50 was > 5.12 µM.

What about the IC50 [41] of the same molecule?
Its IC50 is > 5.12 µM.

What about the IC50 [42] of the same molecule?
Its IC50 is > 5.12 µM.

What about the IC50 [43] of the same molecule?
The IC50 was > 5.12 µM.

And the IC50 [44]?
The IC50 was > 5.12 µM.

What about the IC50 [45] of the same molecule?
The IC50 was > 5.12 µM.

And the IC50 [46]?
The IC50 was 4.17 µM.

What about the IC50 [47] of the same molecule?
Its IC50 is > 5.12 µM.

What about the IC50 [48] of the same molecule?
Its IC50 is > 5.12 µM.

And the IC50 [49]?
Its IC50 is > 5.12 µM.

And the IC50 [50]?
The IC50 was > 5.12 µM.

And the IC50 [51]?
The IC50 was > 5.12 µM.

What about the IC50 [52] of the same molecule?
The IC50 was > 5.12 µM.

And the IC50 [53]?
The IC50 was > 5.12 µM.

And the IC50 [54]?
The IC50 was > 5.12 µM.

What about the IC50 [55] of the same molecule?
Its IC50 is > 5.12 µM.

And the IC50 [56]?
Its IC50 is > 5.12 µM.

What about the IC50 [57] of the same molecule?
Its IC50 is 5.08 µM.

What about the IC50 [58] of the same molecule?
Its IC50 is > 5.12 µM.

What about the IC50 [59] of the same molecule?
The IC50 was > 5.12 µM.

And the IC50 [60]?
Its IC50 is > 5.12 µM.

What about the IC50 [61] of the same molecule?
The IC50 was > 5.12 µM.

What about the IC50 [62] of the same molecule?
Its IC50 is > 5.12 µM.

And the IC50 [63]?
The IC50 was > 5.12 µM.

What about the IC50 [64] of the same molecule?
Its IC50 is > 5.12 µM.

What does the source list for `CCCS(=O)(=O)Nc1ccc(F)c(C(=O)c2c[nH]c3ncc(Cl)cc23)c1F` [PLX-4720]?
IC50 [1]: 9.57 µM; IC50 [2]: > 10 µM; IC50 [3]: > 10 µM; IC50 [4]: > 10 µM; IC50 [5]: > 10 µM; IC50 [6]: > 10 µM; IC50 [7]: > 10 µM; IC50 [8]: > 10 µM; IC50 [9]: > 10 µM; IC50 [10]: > 10 µM; IC50 [11]: > 10 µM; IC50 [12]: > 10 µM; IC50 [13]: > 10 µM; IC50 [14]: > 10 µM; IC50 [15]: > 10 µM; IC50 [16]: > 10 µM; IC50 [17]: > 10 µM; IC50 [18]: > 10 µM; IC50 [19]: > 10 µM; IC50 [20]: > 10 µM; IC50 [21]: > 10 µM; IC50 [23]: > 10 µM; IC50 [25]: > 10 µM; IC50 [26]: > 10 µM; IC50 [27]: > 10 µM; IC50 [28]: 3.4 µM; IC50 [29]: > 10 µM; IC50 [30]: 0.0746 µM; IC50 [31]: > 10 µM; IC50 [32]: > 10 µM; IC50 [33]: 0.878 µM; IC50 [34]: 4.16 µM; IC50 [36]: 4.74 µM; IC50 [37]: > 10 µM; IC50 [38]: > 10 µM; IC50 [39]: > 10 µM; IC50 [40]: 4.49 µM; IC50 [41]: > 10 µM; IC50 [42]: 8.42 µM; IC50 [43]: > 10 µM; IC50 [44]: > 10 µM; IC50 [45]: > 10 µM; IC50 [46]: 3.55 µM; IC50 [47]: > 10 µM; IC50 [65]: > 10 µM; IC50 [48]: > 10 µM; IC50 [49]: > 10 µM; IC50 [50]: > 10 µM; IC50 [51]: > 10 µM; IC50 [52]: > 10 µM; IC50 [53]: > 10 µM; IC50 [54]: > 10 µM; IC50 [55]: > 10 µM; IC50 [56]: > 10 µM; IC50 [57]: > 10 µM; IC50 [58]: > 10 µM; IC50 [59]: 7.37 µM; IC50 [60]: > 10 µM; IC50 [61]: > 10 µM; IC50 [62]: > 10 µM; IC50 [63]: > 10 µM; IC50 [64]: > 10 µM
